# Measurements reported in paper PMC3472974, “The Bite of the Honeybee: 2-Heptanone Secreted from Honeybee Mandibles during a Bite Acts as a Local Anaesthetic in Insects and Mammals” (PLoS ONE, 2012).
# Marks after values point to notes of the source that are not given here.
# Legend:
# [1] = system: isolated rat sciatic nerve; assay: tissue or blood; conditions: for IT50: unit not given in Table 3, seconds per Table 2
# Excerpt: The ex vivo studies used both male and female rats weighing between 230 and 250 g. Animals were sacrificed using light anaesthesia with CO2 and cervical dislocation. The sciatic nerve of the rat, consisting of 27,000 sciatic nerve fibres, was isolated in a three-chamber recording bath (Fig. 5b). The sciatic nerves were dissected from the spinal cord to the knee, immersed in oxygenated (O2, 100%) saline solution and cleaned. The composition of the saline was (in mmoles/L): 136 NaCl, 11 glucose, 4.7 KCl, 2.4 CaCl2, 1.1 MgCl2, 1 NaHCO3, 10 HEPES, pH = 7.2). All experiments were performed at a constant temperature, 26.0±1.0°C. […] The nerve was mounted in a three-chambered recording bath made of Plexiglas, which is described elsewhere, [30]. The recording bath consisted of the recording (R in Fig. 5b), perfusion (P) and stimulating (S) chambers, each with a volume of 12 mL. The nCAP (Fig. 5a) was generated by stimulating (1 Hz) the part of the nerve in the stimulating chamber and was recorded in the recording chamber every second using standard electrophysiological methods. The nCAP was monitored throughout the experiment as an indication of the vitality of the nerve fibres in the recording bath. […] Immediately after the nCAP was eliminated, the saline+compound was removed and the nerve was washed out. Then, recovery of the nCAP in normal stagnant saline was monitored for 24 h. It is worth noting that the recording bath is designed in such a way that the chambers with the saline and 2-H (the nerves and the recording electrodes) was shielded from the air by using the cover (c in Fig. 5b) to avoid evaporation of the volatile 2-H. The saline with 2-H was added through a small diameter opening on the cover.
# For further data analysis, the amplitude of the nCAPs, estimated from baseline to peak (Fig. 5), were measured at a specific time (every 1.0 s, 1.0 min or 1.0 h) and were expressed as a percentage of the amplitude of the nCAP at t = 0 (which was considered to be 100%). In the neuropharmacological experiments, time t = 0 was considered the time before application of the compound under investigation. […] The data were fitted in the program GraphPad Prism 5.0 using a one-phase exponential decay equation for the IC50. Data were analyzed by one-way ANOVA and Bonferroni’s post hoc tests, when required. Significance was determined using Students t-test or ANOVA as appropriate (p<0.05).
# rat sciatic nerve = conditions: 80 mM, rat sciatic nerve in vitro; cited from earlier work
# wax moth larvae (WML) = assay: Locomotory pattern of tethered wax moth larvae after injection; format: in vivo, Galleria mellonella; conditions: large WML
# Excerpt: To monitor the constant locomotory pattern of WML, the probe of a force-displacement transducer (FT-03C, Grass Instrument Company, USA), attached to a micromanipulator, was hooked onto the tail of the WML, while the head was carefully pinned to a wax substrate, [14]. The electrical signal generated by the rhythmic force produced during locomotion was amplified and fed to a computer through a data acquisition card interface (Keithley KPCI 3102, Keithley Instruments, Cleveland, OH, USA). Software designed using the facilities of Labview (Labview 5.1, National Instruments USA) permitted analysis of the recorded data.
# hNav1.6 channels = biological target: T1, hNav1.6 channels (Homo sapiens, UniProt Q9UQD0); assay: Patch-clamp (PatchXpress 7000A) on transfected CHO cells, hNav1.6; format: cell-based; conditions: CHO cells, n = 6, mean ± SEM, 2-H exposure limited to 3 min
# T1 construct: expressed in transfected cells; host or cells: CHO-K1 (ATCC CCL-61)
# T1 sequence (Q9UQD0 whole entry): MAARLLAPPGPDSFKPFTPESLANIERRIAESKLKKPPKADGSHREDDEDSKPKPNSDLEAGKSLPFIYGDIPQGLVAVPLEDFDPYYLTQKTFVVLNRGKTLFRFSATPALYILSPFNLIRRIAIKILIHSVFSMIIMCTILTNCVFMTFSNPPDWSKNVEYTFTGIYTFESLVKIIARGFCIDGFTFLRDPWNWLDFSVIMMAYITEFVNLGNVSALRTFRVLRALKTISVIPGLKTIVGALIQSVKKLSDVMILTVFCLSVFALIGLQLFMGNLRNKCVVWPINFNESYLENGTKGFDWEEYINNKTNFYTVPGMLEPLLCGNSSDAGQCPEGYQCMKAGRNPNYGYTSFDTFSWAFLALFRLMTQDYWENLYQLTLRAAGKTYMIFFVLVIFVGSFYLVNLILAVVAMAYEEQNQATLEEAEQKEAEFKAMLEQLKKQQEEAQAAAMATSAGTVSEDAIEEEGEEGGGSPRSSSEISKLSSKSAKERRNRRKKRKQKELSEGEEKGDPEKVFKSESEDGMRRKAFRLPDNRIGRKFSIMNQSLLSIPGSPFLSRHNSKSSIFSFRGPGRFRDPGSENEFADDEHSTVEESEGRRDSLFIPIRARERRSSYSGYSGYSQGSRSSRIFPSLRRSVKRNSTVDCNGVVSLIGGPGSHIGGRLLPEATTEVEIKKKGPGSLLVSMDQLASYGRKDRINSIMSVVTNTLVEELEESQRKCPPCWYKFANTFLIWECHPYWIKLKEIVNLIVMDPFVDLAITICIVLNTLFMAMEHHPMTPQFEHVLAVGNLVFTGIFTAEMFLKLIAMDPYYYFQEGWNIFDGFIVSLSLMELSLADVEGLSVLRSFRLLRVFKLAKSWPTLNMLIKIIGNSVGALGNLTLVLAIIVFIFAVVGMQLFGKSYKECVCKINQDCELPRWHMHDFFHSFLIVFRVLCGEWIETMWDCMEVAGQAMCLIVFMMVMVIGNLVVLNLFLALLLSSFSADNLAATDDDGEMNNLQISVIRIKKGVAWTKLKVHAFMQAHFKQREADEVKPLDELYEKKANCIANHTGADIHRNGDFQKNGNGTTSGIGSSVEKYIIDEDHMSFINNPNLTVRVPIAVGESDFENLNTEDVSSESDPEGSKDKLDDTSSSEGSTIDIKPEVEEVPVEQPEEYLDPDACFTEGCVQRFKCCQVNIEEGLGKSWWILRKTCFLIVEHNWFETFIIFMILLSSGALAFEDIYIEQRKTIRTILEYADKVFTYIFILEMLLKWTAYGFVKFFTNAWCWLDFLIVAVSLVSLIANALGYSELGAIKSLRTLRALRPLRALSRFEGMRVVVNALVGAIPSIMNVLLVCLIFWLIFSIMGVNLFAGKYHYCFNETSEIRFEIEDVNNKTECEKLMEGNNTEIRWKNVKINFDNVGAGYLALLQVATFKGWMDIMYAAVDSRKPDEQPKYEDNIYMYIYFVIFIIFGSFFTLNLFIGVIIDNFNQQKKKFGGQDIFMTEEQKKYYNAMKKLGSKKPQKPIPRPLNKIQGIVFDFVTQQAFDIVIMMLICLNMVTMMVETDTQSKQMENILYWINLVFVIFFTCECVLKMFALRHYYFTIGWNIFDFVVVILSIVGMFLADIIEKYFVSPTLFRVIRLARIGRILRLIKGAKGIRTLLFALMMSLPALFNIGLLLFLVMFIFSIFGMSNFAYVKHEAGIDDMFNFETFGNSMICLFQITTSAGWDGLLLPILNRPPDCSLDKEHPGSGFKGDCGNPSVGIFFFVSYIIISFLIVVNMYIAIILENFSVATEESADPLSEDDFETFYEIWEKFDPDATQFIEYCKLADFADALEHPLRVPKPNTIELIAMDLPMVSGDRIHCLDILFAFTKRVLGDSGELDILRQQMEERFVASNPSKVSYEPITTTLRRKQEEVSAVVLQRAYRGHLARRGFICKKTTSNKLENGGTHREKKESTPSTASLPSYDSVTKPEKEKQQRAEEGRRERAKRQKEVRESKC
# Excerpt: To test whether 2-H can act by blocking VGNaCs, the PatchXpress 7000A was used. Mammalian CHO (Chinese hamster ovary) transfected with ion hNav1.2 and hNav1.6 channels cDNAs (SCN2A and SCN8A genes) were exposed to 2-H under both tonic and phasic conditions. The mammalian CHO-K1 epithelial embryonic cell line (ATCC number CCL-61) from Cricetulus griseus was obtained from ATCC, Manassas, VA. CHO-K1 cells were transfected with either hNav1.2 or hNav1.6 channel cDNA (SCN2A and SCN8A genes, respectively) and were exposed to 2-H under both tonic and phasic conditions.
# The effects of 2-H were evaluated on hNav1.2 at 0.73, 1.46, 2.19, and 2.92 mg/mL and on hNav1.6 channels at 0.1, 0.36, 0.73, and 1.46 mg/mL, with each concentration tested in at least six cells (n = 6). Cells were exposed to each concentration of 2-H and measurements of the inward current were obtained within the first 3 min of exposure. […] Since the PatchXpress has open cell chambers where the testing occurs, there is no way to hermetically seal the experiment.
# Based on this analysis, we estimated the IC50.
# [2] = Table 3, 3.41 mg/mL, unit not given in Table 3, s
smiles,measurement,setting,value
CCCCC(=O)CC [3-heptanone],IT0,[1]; [2],258.00±11.47^b seconds
same,IT50,"[1]; Table 3, 3.41 mg/mL",40.82 ± 1.67 s
CCCCCC(=O)CC [3-octanone],IT0,[1]; [2],722.50 ± 95.66 s
same,IT50,"[1]; Table 3, 3.41 mg/mL",117.10 ± 0.53 s
CCCCC(C)=O [2-hexanone],IT0,[1]; [2],401.00 ± 33.20 s
same,IT50,"[1]; Table 3, 3.41 mg/mL",74.42 ± 0.79 s
CCCC(C)=O [2-pentanone],IT0,[1]; 3.41 mg/mL,greater than 24 h
same,IT0,[1]; [2],No measurable
same,IT50,"[1]; Table 3, 3.41 mg/mL",390.60 ± 0.10 s
CCCC(=O)CCC [4-heptanone],IT0,[1]; [2],283.57±16.89^b seconds
same,IT50,"[1]; Table 3, 3.41 mg/mL",45.24 ± 0.44 s
CCC(=O)CC [3-pentanone],IT0,[1]; [2],765.00 ± 86.60 s
same,IT50,"[1]; Table 3, 3.41 mg/mL",230.30 ± 1.29 s
CCN(CC)CC(=O)Nc1c(C)cccc1C [lidocaine],effect on axonal membrane,rat sciatic nerve,disrupts the axonal membrane
same,time to full recovery of locomotory pattern,"wax moth larvae (WML); 0.81 mg injected, n = 5",6.42 h
same,effect of injection on large WML,"wax moth larvae (WML); 1.63 mg injected, 12 cases",lethal effect
same,IC50,"hNav1.6 channels; hNav1.6 IC50, Phasic Experiment",299 µM
same,IC50,"hNav1.6 channels; hNav1.6 IC50, Tonic Experiment",1240 µM
same,IT0 (time required for 100% inhibition of the nCAP),[1]; 1.41 mg/mL,320.3 ± 14.96 s
same,IT50 (time to inhibit nCAP amplitude to 50% of control),[1]; 1.41 mg/mL,32.23 ± 3.16 s
same,IT0 (time required for 100% inhibition of the nCAP),[1]; 2.28 mg/mL,186.8 ± 8.07 s
same,IT50 (time to inhibit nCAP amplitude to 50% of control),[1]; 2.28 mg/mL,30.9 ± 0.22 s
same,IT0 (time required for 100% inhibition of the nCAP),[1]; 3.41 mg/mL,147.50 ± 9.96 s
same,IT50 (time to inhibit nCAP amplitude to 50% of control),[1]; 3.41 mg/mL,27.11 ± 3.16 s
same,IT0 (time required for 100% inhibition of the nCAP),[1]; 10 mg/mL,101.3 ± 2.16 s
same,IT50 (time to inhibit nCAP amplitude to 50% of control),[1]; 10 mg/mL,12.0 ± 0.95 s
same,IC50,"[1]; Rattus norvegicus, read-out: IC50 from concentration-response curves of the IT0 values",337 µg/mL
same,recovery of nCAP amplitude after wash with normal saline,"[1]; after elimination of nCAP, remained at this level for at least 24 h, n = 8",95.5%
CCCCCCC(C)=O [2-octanone],IT0,[1]; [2],555.00 ± 75.00 s
same,IT50,"[1]; Table 3, 3.41 mg/mL",81.45 ± 1.58 s
